Usually IC50 stands for the concentration that inhibits the measured activity by half.

We go through 11 molecules from patent publication US8168795B2, “Selective sphingosine-1-phosphate receptor antagonists” (Allergan, Inc., priority 2009, dated 2012).

This experiment addresses S1P3 receptor (Homo sapiens, UniProt Q99500). Kind of experiment: GTP γ35S binding assay, antagonist mode. Format: biochemical. As to conditions: for IC50: antagonist assay, reaction mixture contained 10 nM S1P, membranes, read-out: S1P3 GTPγ^35S IC50. How it is done: B. Novel compounds were synthesized and tested for S1P3 activity using the GTP γ^35S binding assay. GTP γ^35S binding was measured in the medium containing (mM) HEPES 25, pH 7.4, MgCl2 10, NaCl 100, dithiothreitol 0.5, digitonin 0.003%, 0.2 nM GTP γ^35S, and 5 μg membrane protein in a volume of 150 μl. Test compounds were included in the concentration range from 0.08 to 5,000 nM unless indicated otherwise. Membranes were incubated with 100 μM 5′-adenylylimmidodiphosphate for 30 min, and subsequently with 10 μM GDP for 10 min on ice. Drug solutions and membrane were mixed, and then reactions were initiated by adding GTP γ^35S and continued for 30 min at 25° C. Reaction mixtures were filtered over Whatman GF/B filters under vacuum, and washed three times with 3 mL of ice-cold buffer (HEPES 25, pH7.4, MgCl2 10 and NaCl 100). Filters were dried and mixed with scintillant, and counted for ^35S activity using a β-counter. Agonist-induced GTP γ^35S binding was obtained by subtracting that in the absence of agonist. Binding data were analyzed using a non-linear regression method. In case of antagonist assay, the reaction mixture contained 10 nM S1P in the presence of test antagonist at concentrations ranging from 0.08 to 5000 nM.
(In general: GTPγS resists hydrolysis and so accumulates on activated G proteins.)

Chain of S1P3 receptor (Q99500 whole entry): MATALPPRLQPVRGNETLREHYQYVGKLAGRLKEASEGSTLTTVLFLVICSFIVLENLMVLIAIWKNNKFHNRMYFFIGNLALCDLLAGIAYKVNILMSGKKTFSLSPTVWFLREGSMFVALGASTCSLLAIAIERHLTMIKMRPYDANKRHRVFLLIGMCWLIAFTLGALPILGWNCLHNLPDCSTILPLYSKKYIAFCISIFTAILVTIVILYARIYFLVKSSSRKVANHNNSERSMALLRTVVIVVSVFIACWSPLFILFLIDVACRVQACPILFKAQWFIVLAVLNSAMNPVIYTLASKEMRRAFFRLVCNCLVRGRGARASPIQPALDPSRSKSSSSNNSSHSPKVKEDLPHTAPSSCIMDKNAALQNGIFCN

For `CC1CCC(NC(NC(=O)c2ccc(Br)cc2)C(Cl)(Cl)Cl)CC1` (single isomer, unassigned) [Compound-49, 4-bromo-N-(2,2,2-trichloro-1-(4-methylcyclohexylamino)ethyl)benzamide], the half-inhibitory concentration (IC50) amounted to 671 nM.

In the case of `O=C(NC(Nc1ccc(Cl)cc1)C(F)(F)C(F)(F)F)c1ccc(Br)cn1` (single isomer, unassigned; (-)) [Compound-32, (−)-5-bromo-N-(1-(4-chlorophenylamino)-2,2,3,3,3-pentafluoropropyl)picolinamide], the 50% inhibitory concentration (IC50) was found to be 1.3 nM. The “activity of separated enantiomer” value (enantiomers of Compound-28 separated by chiral HPLC, assay not stated) was “active enantiomer”.

`O=C(NC(Nc1ccc(Cl)cc1)C(=O)c1cccc2ccccc12)c1ccc(Br)cn1` (stereo not drawn) [Compound-1, 5-bromo-N-(1-(4-chlorophenylamino)-2-(naphthalen-1-yl)-2-oxoethyl)picolinamide]: the half-maximal inhibitory concentration (IC50) came to 10 nM.

As for `O=C(NC(Nc1ccc(Cl)cc1)C(=O)c1ccc2ccccc2c1)c1ccc(Br)cn1` (stereo not drawn) [Compound-2, 5-bromo-N-(1-(4-chlorophenylamino)-2-(naphthalen-2-yl)-2-oxoethyl)picolinamide], the IC50 was 31 nM.

Regarding `COc1cccc(C(=O)C(NC(=O)c2ccc(Br)cn2)Nc2ccc(Cl)cc2)c1` (stereo not drawn) [Compound-3, 5-bromo-N-(1-(4-chlorophenylamino)-2-(3-methoxyphenyl)-2-oxoethyl)picolinamide], the IC50 amounted to 5.2 nM.

Consider `O=C(NC(Nc1ccc(Cl)cc1)c1ccc(Cl)cc1)c1ccc(Br)cn1` (stereo not drawn) [Compound-7, 5-Bromo-N-((4-chlorophenyl)(4-chlorophenylamino)methyl)picolinamide], for which the half-maximal inhibitory concentration (IC50) was found to be 115 nM.

On to `O=C(NC(Nc1ccc(Cl)cc1)c1cc2ccccc2o1)c1ccc(Br)cn1` (stereo not drawn) [Compound-10, N-(benzofuran-2-yl(4-chlorophenylamino)methyl)-5-bromopicolinamide], for which the IC50 was found to be 4.7 nM.

With `CCC(Cl)(Cl)C(NC(=O)c1ccc(Br)cn1)Nc1ccc(Cl)cc1` (stereo not drawn) [Compound-27, 5-Bromo-N-(2,2-dichloro-1-(4-chlorophenylamino)butyl)picolinamide], the IC50 stood at 56 nM.

`O=C(NC(Nc1ccc(Cl)cc1)C(F)(F)C(F)(F)C(F)(F)C(F)(F)F)c1ccc(Br)cn1` (stereo not drawn) [Compound-29]: the IC50 was determined as 5.5 nM.

Take `O=C(NC(Nc1cnc(Cl)nc1)C(F)(F)C(F)(F)F)c1ccc(Br)cn1` (stereo not drawn) [Compound-35, 5-Bromo-N-(1-(2-chloropyrimidin-5-ylamino)-2,2,3,3,3-pentafluoropropyl)picolinamide]: the IC50 was 2 nM.

As for `O=C(NC(Nc1cnc(Cl)nc1)C(F)(F)C(F)(F)C(F)(F)C(F)(F)C(F)(F)C(F)F)c1ccc(Br)cn1` (stereo not drawn) [Compound-37, 5-Bromo-N-(1-(2-chloropyrimidin-5-ylamino)-2,2,3,3,4,4,5,5,6,6,7,7-dodecafluoroheptyl)picolinamide], the half-inhibitory concentration (IC50) is 59 nM.
